Source: PubChem BioAssay (NCI)
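Where inhibition never reached the appropriate level, the endpoint shown equals the highest concentration tested. Otherwise, values were interpolated linearly from a five-concentration, 48-hour dose response in 96-well plates. GI50: concentration for 50% inhibition of growth. Definition used: TGI = concentration required for complete inhibition of growth.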

Key:
Experiment in all cases: growth of human tumour cells (NCI), 48 h
CAKI-1 renal = tested on: CAKI-1 renal
EKVX NSCLC = tested on: EKVX NSCLC
HOP-92 NSCLC = tested on: HOP-92 NSCLC
HT29 colon = tested on: HT29 colon
IGROV1 ovarian = tested on: IGROV1 ovarian
MDA-MB-435 = tested on: MDA-MB-435
NCI-H522 lung = tested on: NCI-H522 lung
SF-268 CNS = tested on: SF-268 CNS
UACC-257 melanoma = tested on: UACC-257 melanoma
CCRF-CEM leukemia = tested on: CCRF-CEM leukemia

Compound	GI50 (CAKI-1 renal)	TGI (CAKI-1 renal)	GI50 (EKVX NSCLC)	TGI (EKVX NSCLC)	GI50 (HOP-92 NSCLC)	TGI (HOP-92 NSCLC)	GI50 (HT29 colon)	TGI (HT29 colon)	GI50 (IGROV1 ovarian)	TGI (IGROV1 ovarian)	GI50 (MDA-MB-435)	TGI (MDA-MB-435)	GI50 (NCI-H522 lung)	TGI (NCI-H522 lung)	GI50 (SF-268 CNS)	TGI (SF-268 CNS)	GI50 (UACC-257 melanoma)	TGI (UACC-257 melanoma)	TGI (CCRF-CEM leukemia)	GI50 (CCRF-CEM leukemia)
COc1ccc(/C=C2\N=C(c3ccccc3)N(c3cc(C(F)(F)F)ccc3Cl)C2=O)cc1OC	> 100 µM	> 100 µM	> 100 µM	> 100 µM	83.9 µM	> 100 µM	26.9 µM	63.1 µM	28.4 µM	> 100 µM	40.6 µM	> 100 µM	31.8 µM	> 100 µM	31.8 µM	> 100 µM	> 100 µM	> 100 µM	–	–
CN(C)c1ccccc1CC(c1c[nH]c2ccccc12)c1c[nH]c2ccccc12	–	16.3 µM	–	18.1 µM	–	–	–	17.8 µM	–	30.9 µM	–	–	–	26.1 µM	–	28.8 µM	–	31.8 µM	26.6 µM	–
N#Cc1ccc(/C=N\N2C(=O)c3ccccc3C2=O)cc1	–	> 100 µM	–	> 100 µM	–	> 100 µM	–	> 100 µM	–	> 100 µM	–	–	–	–	–	> 100 µM	–	> 100 µM	> 100 µM	–
COc1ccc2nc3cc(Cl)ccc3c(NCCC(=O)OCC(O)C(O)C(O[C@H](C)C(=O)NC(C)C(=O)NC(CCC(N)=O)C(=O)OCc3ccccc3)C(C=O)NC(C)=O)c2c1 (some centres undefined)	–	40.9 µM	–	36.9 µM	–	31.9 µM	–	41.3 µM	–	30.2 µM	–	–	–	28 µM	–	32.8 µM	–	> 100 µM	> 100 µM	–
COC(=O)CCC(=O)CC(=O)C(=O)Nc1ccc(F)cc1	–	> 100 µM	–	> 100 µM	–	> 100 µM	–	> 100 µM	–	> 100 µM	–	–	–	> 100 µM	–	> 100 µM	–	> 100 µM	> 100 µM	–
Nc1nc(=O)n(C2CC(O)C(O)C(CO)O2)cc1F (centres undefined)	–	–	–	> 100 µM	–	–	–	> 100 µM	–	> 100 µM	–	–	–	> 100 µM	–	> 100 µM	–	> 100 µM	> 100 µM	–
O=c1oc2c3ccc4ccccc4c3n(CCN3CCOCC3)c2c2ccccc12	–	> 100 µM	–	> 100 µM	–	> 100 µM	–	> 100 µM	–	> 100 µM	–	–	–	> 100 µM	–	> 100 µM	–	> 100 µM	15.2 µM	–
COc1c(OC(C)=O)c(OC(C)=O)cc2c1-c1ccc(OC)c(=O)cc1C(NC(C)=O)CC2 (centres undefined)	–	> 100 µM	–	> 100 µM	–	–	–	–	–	> 100 µM	–	–	–	0.0192 µM	–	54.4 µM	–	> 100 µM	> 100 µM	–
CC(C)(C)C(=O)OCOP(=O)(OCOC(=O)C(C)(C)C)C1CCCN(OC(=O)c2ccccc2)C1=O (centres undefined)	–	–	0.999 µM	50.7 µM	1.25 µM	35.8 µM	0.529 µM	6.28 µM	0.657 µM	3.08 µM	3 µM	17.6 µM	0.338 µM	1.5 µM	1.86 µM	61.7 µM	3.43 µM	22.4 µM	29.7 µM	0.643 µM
COc1ccc(Nc2c3c4c(cccc4[nH]c2=O)C(=O)c2ccccc2-3)cc1	< 0.0218 µM	1.23 µM	0.0552 µM	> 100 µM	0.332 µM	> 100 µM	< 0.01 µM	–	0.0365 µM	> 100 µM	0.0335 µM	> 100 µM	< 0.0175 µM	–	0.0373 µM	18.6 µM	1.21 µM	> 92.4 µM	–	–
